Consider 24 compounds from US7786141B2 (Vertex Pharmaceuticals Incorporated, priority 2004, dated 2010).

As a reminder, the Emax is the size of the effect at its maximum, as opposed to the concentration needed.

One assay addresses T1, M1 muscarinic receptor (Homo sapiens, UniProt P11229).
T1 construct: expressed in transfected cells; host or cells: CHO (M1-CHO)
T1 sequence (P11229 1-460): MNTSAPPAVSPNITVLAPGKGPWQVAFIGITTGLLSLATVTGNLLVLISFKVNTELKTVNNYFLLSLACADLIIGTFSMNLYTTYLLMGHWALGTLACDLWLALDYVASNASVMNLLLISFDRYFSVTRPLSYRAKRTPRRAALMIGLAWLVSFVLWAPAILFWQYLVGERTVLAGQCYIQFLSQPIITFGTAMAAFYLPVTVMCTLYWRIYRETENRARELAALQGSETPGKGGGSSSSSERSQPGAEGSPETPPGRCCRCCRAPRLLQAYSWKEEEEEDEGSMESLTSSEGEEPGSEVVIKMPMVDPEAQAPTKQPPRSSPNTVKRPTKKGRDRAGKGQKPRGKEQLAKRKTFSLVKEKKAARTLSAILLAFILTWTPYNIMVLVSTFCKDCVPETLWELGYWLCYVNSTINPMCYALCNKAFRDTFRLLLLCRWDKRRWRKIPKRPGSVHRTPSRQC
The assay can be described thus: Functional mobilization of intracellular calcium (FLIPR) in M1-CHO cells. Format: cell-based. To be noted: Table 4; for Emax: 100% efficacy is the maximum response obtained with the Carbachol control; for M1 Activity: modulating M1 receptor. The procedure, abridged:
(§1)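 Two modes: direct compound addition for agonism, or 15 min compound pre-incubation (or co-application) before carbachol at EC80 for inhibition. Calcium signal from Fluo-3 AM or Calcium 3 dye in CHO cells, 1 mM probenecid, pH 7.4, read 60 sec at 488/540 nm; DMSO 0.5% final.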
A general note: Calcium flux is commonly read through the fluorescence of an indicator in the cells.

The next assay deals with T2, M4 muscarinic receptor (Homo sapiens, UniProt P08173).
T2 construct: expressed in transfected cells; host or cells: CHO (M4-CHO)
T2 sequence (P08173 1-479): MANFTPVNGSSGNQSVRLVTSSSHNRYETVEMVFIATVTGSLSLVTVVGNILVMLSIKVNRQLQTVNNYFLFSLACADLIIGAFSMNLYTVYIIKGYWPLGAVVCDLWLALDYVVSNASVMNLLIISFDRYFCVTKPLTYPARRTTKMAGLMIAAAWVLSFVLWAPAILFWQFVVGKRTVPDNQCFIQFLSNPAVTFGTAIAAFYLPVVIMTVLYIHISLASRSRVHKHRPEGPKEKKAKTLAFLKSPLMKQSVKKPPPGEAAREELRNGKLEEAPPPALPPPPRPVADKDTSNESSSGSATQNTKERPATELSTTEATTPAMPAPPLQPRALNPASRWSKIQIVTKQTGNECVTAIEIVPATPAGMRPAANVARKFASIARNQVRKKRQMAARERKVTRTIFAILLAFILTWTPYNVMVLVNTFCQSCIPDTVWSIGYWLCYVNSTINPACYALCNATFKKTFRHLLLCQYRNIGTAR
The assay can be described thus: Functional mobilization of intracellular calcium (FLIPR) in M4-CHO cells. To be noted: Table 4; for Emax: 100% efficacy is the maximum response obtained with the Carbachol control; for M4 Activity: modulating M4 receptor. It is filed as cell-based. The procedure, abridged: as §1

As for `CC(=O)NC1CCC2(CCN(C3CCCCC3)CC2)c2ccccc21` (stereo not drawn) [compound 716], on M1 muscarinic receptor, the Emax fell in the range of 25 to 100% and the “M1 Activity” value is listed as “xxx (activity was measured to be less than 2.0 μM)”. For the same compound, on M4 muscarinic receptor, the Emax was in the range of 25 to 100% and the “M4 Activity” value is “xxx (activity was measured to be less than 2.0 μM)”.
As to `CCOC(=O)N1CCC(N2CCC3(CC2)CN(c2ccccc2OC)c2ccc(F)cc23)CC1` [compound 717], on M1 muscarinic receptor, the maximal effect (Emax) was 25 to 100% and the “M1 Activity” value was “xxx (activity was measured to be less than 2.0 μM)”. On M4 muscarinic receptor, the Emax lay in the range of 25 to 100% and the “M4 Activity” value is on record as “xxx (activity was measured to be less than 2.0 μM)”.
On to `CN(C)C(=O)N1CC2(CCN(C3CCN(C(=O)c4ccccn4)CC3)CC2)c2cc(F)ccc21` [compound 718], for which, at M1 muscarinic receptor, the maximal response (Emax) was less than 25% and the “M1 Activity” value is on record as “x (activity was measured to be greater than 5.0 μM)”. On M4 muscarinic receptor, the Emax is less than 25% and the “M4 Activity” value is given as “x (activity was measured to be greater than 5.0 μM)”.
Regarding `CCOC(=O)N1CCC(N2CCC3(CC2)CN(C(C)=O)c2ccc(S(C)(=O)=O)cc23)CC1` [compound 719], on M1 muscarinic receptor, the maximal response (Emax) was 25 to 100% and the “M1 Activity” value is recorded as “xxx (activity was measured to be less than 2.0 μM)”. In addition, at M4 muscarinic receptor, the Emax is less than 25% and the “M4 Activity” value is listed as “x (activity was measured to be greater than 5.0 μM)”.
Turning to `CN(C)C(=O)N1CC2(CCN(C3CCN(c4ccccn4)CC3)CC2)c2cc(F)ccc21` [compound 720], on M1 muscarinic receptor, the maximal response (Emax) is 25 to 100%; the “M1 Activity” value was “xx (activity was measured to be between 2.0 μM and 5.0 μM)”. Further, at M4 muscarinic receptor, the Emax lay in the range of 25 to 100% and the “M4 Activity” value is on record as “xxx (activity was measured to be less than 2.0 μM)”.
Take `CCCCNC(=O)N1CC2(CCN(C3CCN(C(=O)OCC)CC3)CC2)c2ccccc21` [compound 721]: on M1 muscarinic receptor, the Emax was 25 to 100% and the “M1 Activity” value was “xxx (activity was measured to be less than 2.0 μM)”. Moreover, at M4 muscarinic receptor, the Emax was in the range of 25 to 100% and the “M4 Activity” value was “xxx (activity was measured to be less than 2.0 μM)”.
`CCOC(=O)N1CCC(CN2CCC3(CC2)CN(C(C)=O)c2c(F)cc(F)cc23)CC1` [compound 722]: on M1 muscarinic receptor, the maximal effect (Emax) fell in the range of 25 to 100% and the “M1 Activity” value is on record as “xxx (activity was measured to be less than 2.0 μM)”. On M4 muscarinic receptor, the maximal effect (Emax) was 25 to 100% and the “M4 Activity” value was “xxx (activity was measured to be less than 2.0 μM)”.
In the case of `CS(=O)(=O)N[C@H]1CCC2(CCN(C3CCCCCC3)CC2)c2ccccc21` [compound 723], at M1 muscarinic receptor, the Emax lay within 25 to 100% and the “M1 Activity” value was “xxx (activity was measured to be less than 2.0 μM)”. Further, on M4 muscarinic receptor, the maximal response (Emax) was 25 to 100% and the “M4 Activity” value is listed as “xxx (activity was measured to be less than 2.0 μM)”.
Take `CC(=O)N1CC2(CCN(C3CCN(C(=O)OCC4CC4)CC3)CC2)c2ccccc21` [compound 724]: at M1 muscarinic receptor, the Emax lay within 25 to 100%; the “M1 Activity” value was “xx (activity was measured to be between 2.0 μM and 5.0 μM)”. For the same compound, on M4 muscarinic receptor, the maximal response (Emax) is less than 25% and the “M4 Activity” value is recorded as “x (activity was measured to be greater than 5.0 μM)”.
With `O=C(N[C@H]1CC2(CCN(CCC3CC4CC[C@@H]3C4)CC2)c2ccccc21)N1CCCC1` (stereo partly drawn) [compound 726], at M1 muscarinic receptor, the Emax is less than 25% and the “M1 Activity” value is recorded as “x (activity was measured to be greater than 5.0 μM)”. Moreover, at M4 muscarinic receptor, the maximal effect (Emax) was less than 25% and the “M4 Activity” value is “x (activity was measured to be greater than 5.0 μM)”.
Consider `CN(C)C(=O)N1CC2(CCN(C3CCN(C(=O)C4(C(F)(F)F)CC4)CC3)CC2)c2cc(F)ccc21` [compound 727], for which, at M1 muscarinic receptor, the maximum response (Emax) lay within 25 to 100% and the “M1 Activity” value was “x (activity was measured to be greater than 5.0 μM)”. Besides, at M4 muscarinic receptor, the Emax fell in the range of 25 to 100% and the “M4 Activity” value is on record as “xxx (activity was measured to be less than 2.0 μM)”.
Regarding `CCOC(=O)N1CCC(N2CCC3(CC2)CN(C(C)=O)c2c(-c4cccnc4)cccc23)CC1` [compound 728], at M1 muscarinic receptor, the maximal effect (Emax) lay within 25 to 100%; the “M1 Activity” value was “xx (activity was measured to be between 2.0 μM and 5.0 μM)”. For the same compound, at M4 muscarinic receptor, the Emax is less than 25% and the “M4 Activity” value is given as “x (activity was measured to be greater than 5.0 μM)”.
On to `CN(C)C(=O)N1CC2(CCN(C3CCN(C(=O)CC#N)CC3)CC2)c2cc(F)ccc21` [compound 729], for which, at M1 muscarinic receptor, the Emax is less than 25% and the “M1 Activity” value is listed as “x (activity was measured to be greater than 5.0 μM)”. Further, at M4 muscarinic receptor, the Emax is less than 25% and the “M4 Activity” value is “x (activity was measured to be greater than 5.0 μM)”.
On to `CCOC(=O)N1CCC(N2CCC3(CC2)CN(C(=O)[C@H](O)CC)c2ccc(F)cc23)CC1` [compound 730], for which, on M1 muscarinic receptor, the Emax is 25 to 100% and the “M1 Activity” value was “xxx (activity was measured to be less than 2.0 μM)”. At M4 muscarinic receptor, the Emax is 25 to 100% and the “M4 Activity” value is “xxx (activity was measured to be less than 2.0 μM)”.
In the case of `CC(=O)NC1CCC2(CCN(CCC3CCCN(C(=O)OC(C)C)C3)CC2)c2ccccc21` (stereo not drawn) [compound 731], on M1 muscarinic receptor, the maximal effect (Emax) is less than 25% and the “M1 Activity” value is given as “xxx (activity was measured to be less than 2.0 μM)”. Besides, at M4 muscarinic receptor, the Emax was less than 25% and the “M4 Activity” value is listed as “x (activity was measured to be greater than 5.0 μM)”.
In the case of `O=C1CC2(CCN([C@@H]3C[C@H]4CC[C@@H]3C4)CC2)c2ccccc21` [compound 732], on M1 muscarinic receptor, the maximal response (Emax) fell in the range of 25 to 100% and the “M1 Activity” value is “x (activity was measured to be greater than 5.0 μM)”. For the same compound, at M4 muscarinic receptor, the Emax lay in the range of 25 to 100%; the “M4 Activity” value is “xx (activity was measured to be between 2.0 μM and 5.0 μM)”.
`CN(C)C(=O)CN1CC2(CCN(C[C@H]3C[C@H]4C=CC3C4)CC2)c2cc(F)ccc21` [compound 734]: on M1 muscarinic receptor, the Emax lay in the range of 25 to 100% and the “M1 Activity” value is reported as “xxx (activity was measured to be less than 2.0 μM)”. At M4 muscarinic receptor, the maximal response (Emax) fell in the range of 25 to 100% and the “M4 Activity” value is listed as “xxx (activity was measured to be less than 2.0 μM)”.
As for `COc1cccc(N2CCC(N3CCC4(CC3)CN(C(=O)N(C)C)c3ccc(F)cc34)CC2)c1` [compound 735], on M1 muscarinic receptor, the maximal effect (Emax) was in the range of 25 to 100%; the “M1 Activity” value was “xx (activity was measured to be between 2.0 μM and 5.0 μM)”. Further, at M4 muscarinic receptor, the maximal response (Emax) lay within 25 to 100% and the “M4 Activity” value is recorded as “xxx (activity was measured to be less than 2.0 μM)”.
For the compound `COCCN1CC2(CCN([C@@H]3C[C@H]4CCC3C4)CC2)c2cc(C)ccc21` [compound 737], at M1 muscarinic receptor, the maximal response (Emax) was 25 to 100%; the “M1 Activity” value is “xx (activity was measured to be between 2.0 μM and 5.0 μM)”. Also, on M4 muscarinic receptor, the maximum response (Emax) is 25 to 100% and the “M4 Activity” value is recorded as “xxx (activity was measured to be less than 2.0 μM)”.
With `CC(=O)N[C@H]1CCC2(CCN(CC3CC4C=CC3C4)CC2)c2ccccc21` (stereo partly drawn) [compound 740], on M1 muscarinic receptor, the Emax was in the range of 25 to 100% and the “M1 Activity” value is on record as “xxx (activity was measured to be less than 2.0 μM)”. Moreover, at M4 muscarinic receptor, the Emax was 25 to 100% and the “M4 Activity” value is “xxx (activity was measured to be less than 2.0 μM)”.
For `CC(=O)NC1CCC2(CCN(CCC3CCCN(C(=O)OCC(C)C)C3)CC2)c2ccccc21` (stereo not drawn) [compound 741], at M1 muscarinic receptor, the Emax is less than 25% and the “M1 Activity” value is on record as “x (activity was measured to be greater than 5.0 μM)”. Besides, at M4 muscarinic receptor, the Emax is less than 25% and the “M4 Activity” value was “x (activity was measured to be greater than 5.0 μM)”.
For `CC(=O)N1CC2(CCN(C3CC4CCC(C3)N4C(=O)OC(C)C)CC2)c2ccccc21` (stereo not drawn) [compound 742], on M1 muscarinic receptor, the maximal response (Emax) is 25 to 100% and the “M1 Activity” value is “xxx (activity was measured to be less than 2.0 μM)”. At M4 muscarinic receptor, the maximal response (Emax) is 25 to 100% and the “M4 Activity” value is on record as “xxx (activity was measured to be less than 2.0 μM)”.
With `CCC(C)C(=O)N1C2CCC1CC(N1CCC3(CC1)CN(C(C)=O)c1ccccc13)C2` (stereo not drawn) [compound 743], on M1 muscarinic receptor, the maximal response (Emax) is less than 25% and the “M1 Activity” value was “x (activity was measured to be greater than 5.0 μM)”. Further, on M4 muscarinic receptor, the maximal response (Emax) is less than 25% and the “M4 Activity” value is “x (activity was measured to be greater than 5.0 μM)”.
As for `O=C(N[C@H]1CCC2(CCN(C3CC4CCC(C4)C3)CC2)c2ccccc21)C1CC1` (stereo partly drawn) [compound 744], on M1 muscarinic receptor, the maximal effect (Emax) lay in the range of 25 to 100% and the “M1 Activity” value was “xxx (activity was measured to be less than 2.0 μM)”. In addition, on M4 muscarinic receptor, the Emax was 25 to 100% and the “M4 Activity” value is recorded as “xxx (activity was measured to be less than 2.0 μM)”.
